Laboratory results taken from patent publication US20200068887A1, “TREATMENT FOR REMOVING ECTOPARASITES FROM FISH” (priority 2016, published 2020).
“And” between values parts separate entries of the source, which are not always exact repeats. Identical values can stand only once.

Experiments:
[1] = test system: sea lice; assay: Comparison on isolated sea lice (in vitro bath exposure); details: registered approx. 20 h after end of exposure
Procedure: Both pre-adult and adult stages (mobile stages) of both sexes were used, and they were equally distributed among groups. The sea lice were exposed to imidacloprid for 60 minutes, azamethiphos for 60 minutes and deltamethrin for 30 minutes in one litre baths at a range of concentrations (Tables 6, 7 and 8). The sea lice were transferred to clean aerated seawater after treatment. The temperature of the seawater during the experiment was 12° C., but during exposure the temperature raised to approx. 14° C. in regimes exposed for 60 min. (imidacloprid and azamethiphos) and to 13° C. for the regime exposed in 30 minutes (deltamethrin).
The numbers of live and immobilised (including killed) lice in each regime were registered approximately 20 h after end of exposure. Each louse was individually investigated.

[2] = test system: salmon louse; assay: Bath treatment of lice-infected Atlantic salmon, percent lice removed; format: in vivo; details: duplicate
Procedure: To determine the concentration- and time-dependence of imidacloprid treatment in vivo, Atlantic salmon (average of 320.9 g) were challenged with imidacloprid in seawater (32.5%0 salinity) at 12° C. The water level in the tank was lowered and aeration was employed during administration of the active. The salmon louse copepodid culture was counted and adjusted to obtain a target level of around 40 copepodids per fish in the challenge tank at each challenge time point.
Salmon lice on the fish were counted using standard methods. Only lice on the fish's outer surface, not including gills and oral/buccal cavities, were investigated.
Numbers of dissociated lice in tank water or attached to the tank walls were recorded. Lice in the tank water were collected and assessed for ability to attach by suction to a smooth plastic surface immediately after treatment and again after 30-60 minutes (to assess possible revival). Live and viable lice were also collected from the mock-treated control groups for reference and held in revival chambers for the same period of time to assess the system.
The test solutions of the active were prepared (added and homogenised with seawater) and administered to a treatment volume of 40 litres.
Three sea lice-infected fish from the holding tank were randomly gathered and carefully steered into a barrel forming an inner compartment (diameter=34.5-40 cm; height=54 cm) that was submerged in the tank and in which the base has been replaced with a plastic mesh screen with 9 mm^2 square holes.
The fish were transferred to the inner compartment within 3 minutes of each test start. The inner compartment was suspended/submerged in the holding tank pending treatment. Treatments and mock treatments were implemented by draining the inner compartment with fish and transferring it to a barrel containing the test solution. Treatments/mock treatments were performed in static water with aeration/oxygenation. Aeration was adjusted to set the oxygen saturation to 70-100%.
To terminate the treatment, the inner compartment with treated fish was lifted to the surface and drained, then fish were transferred directly and without water to a second basin with a lethal overdose of anaesthetic and left until dead. All lice remaining on these fish and lice that fell off in the anaesthetic bath were recorded.
Exposure times with imidacloprid ranged from 3 to 60 minutes, and doses ranged from 20 ppm to 200 ppm.
Negative control groups at 3- and 60 minutes were duplicated. Superscript numbers denote the total number of lice on the 3 fish in each test.
By way of comparison, fish infected with sea lice from the same sources were treated with azamethiphos at 0.1 mg/l and deltamethrin at 0.2 μ/l for 30 minutes, per the recommended dosage regimes. Treatments were carried out under similar conditions as those treated with imidacloprid. A mock-treatment control was also administered. Each treatment condition was administered in duplicate.
Superscript numbers denote the total number of lice on the 3 fish in each test.

[3] = azamethiphos 5 ppm, 60 min exposure
[4] = azamethiphos 10 ppm, 60 min exposure
[5] = azamethiphos 15 ppm, 60 min exposure
[6] = azamethiphos 20 ppm, 60 min exposure
[7] = deltamethrin 5 ppm, 30 min exposure
[8] = deltamethrin 15 ppm, 30 min exposure
[9] = deltamethrin 20 ppm, 30 min exposure
[10] = deltamethrin 30 ppm, 30 min exposure

`COP(=O)(OC)SCn1c(=O)oc2cc(Cl)cnc21` [azamethiphos] was tested, and the “% effect” value [1, 3] was 0%, the Immobilised [1, 3] was 0 and the Live [1, 3] was 10. For the same compound, the “% effect” value [1, 4] was 10%, the Immobilised [1, 4] was 1 and the Live [1, 4] was 9. The “% effect” value [1, 5] was 0%, the Immobilised [1, 5] was 0 and the Live [1, 5] was 10. For the same compound, the “% effect” value [1, 6] was 10% and 20%, the Immobilised [1, 6] was 1 and 2 and the Live [1, 6] was 9 and 8. For the same compound, the Live ([1]; azamethiphos 30 ppm, 60 min exposure) was 9 and 6 and the “% Removal” value ([2]; azamethiphos at 0.1 mg/l for 30 minutes, 52 and 33 lice on 3 fish) was 3.0^33% and 3.8^52%.
For `CC1(C)[C@H](C(=O)O[C@H](C#N)c2cccc(Oc3ccccc3)c2)[C@@H]1C=C(Br)Br` [deltamethrin], the “% effect” value [1, 7] was 0%, the Immobilised [1, 7] was 0 and the Live [1, 7] was 10. For the same compound, the Live ([1]; deltamethrin 10 ppm, 30 min exposure) was 9 and 10, the “% effect” value [1, 8] was 20% and 10% and the Immobilised [1, 8] was 2 and 1. For the same compound, the Live [1, 8] was 8 and 9, the “% effect” value [1, 9] was 20% and 10% and the Immobilised [1, 9] was 2 and 1. For the same compound, the Live [1, 9] was 8 and 9, the Immobilised [1, 10] was 1 and 2 and the Live [1, 10] was 10 and 8. The “% Removal” value ([2]; deltamethrin at 0.2 μ/l for 30 minutes, 37 lice on 3 fish each) was 0^37%.
